Results reported in US7202280B2, “Methods for the treatment and prevention of pancreatitis and for induction of liver regeneration” (priority 2002, dated 2007).
Marks after values point to notes of the source that are not given here.

Key:
[1] = tested on: syngenic and transgenic rats; assay: Liver regeneration after partial hepatectomy (liver weight, PCNA labeling index, thymidine incorporation); type: in vivo, rat; conditions: for stimulation of DNA synthesis (thymidine incorporation): 25 mg/kg 20 h and 4 h before; for PCNA-positive hepatocytes: repeated experiment
Procedure: FIGS. 5a–5b. Liver weight (FIG. 5a) and PCNA labeling index (FIG. 5b) in syngenic and transgenic rats after partial hepatectomy and methylspermidine. Three to five animals in each group. *p<0.05, ***p<0.001 as compared with preoperative values. Md-spd, methylspermidine.
FIG. 10. Effect of polyamine analogues on thymidine incorporation in 24-h regenerating livers of SSAT transgenic rats. […] Ten μCi of tritiated thymidine was given 30 min before sacrifice. Three to four animals in each group.
(§1) The production of transgenic Wistar rats (UKUR30) and mice (UKU181) harboring metallothionein-SSAT fusion gene (Suppola, S., Pietilä, M., Parkkinen, J. J., Korhonen, V. P., Alhonen, L., Halmekytö, M., Porter, C. W., and Jänne, J. (1999) Biochem. J. 338, 311–316) has been described earlier (Alhonen, L., Parkkinen, J. J., Keinänen, T., Sinervirta, R., Herzig, K. H., and Jänne, J. (2000) Proc. Natl. Acad. Sci. U.S.A. 97, 8290–8295; Lukkarinen, J., Gröhn, O., Sinervirta, R., Järvinen, A., Kauppinen, R. A., Jänne, J., and Alhonen, L. (1997) Stroke 28, 639–645). Partial hepatectomy was carried out according to the original method of Higgins and Anderson (Higgins, G. H., and Anderson, R. M. (1931) Arch. Pathol. 12, 186–202). Treatments before partial hepatectomy and the determination of DNA synthesis were carried out as in (Räsänen, T. L., Alhonen, L., Sinervirta, R., Keinänen, T., Herzig, K. H., Suppola, S., Khomutov, A. R., Vepsäläinen, J., and Jänne, J. (2002) J. Biol. Chem. 277, 39867–39872). […] The animals were sacrificed 24 h after the second MDL72527 injection and liver pieces were frozen in liquid nitrogen, homogenized in buffer (25 mM Tris-HCl pH 7.4, 0.1 mM EDTA, 1 mM DTT). An aliquot of the homogenates was used for the polyamine assays. The homogenates were centrifuged (at 13 000×g, for 30 min, at 4° C.) and the supernatants were used for the enzyme activity assays. The Institutional Animal Care and Use Committee of the University of Kuopio and by the Provincial Government approved animal experiments.
PCNA was detected from formalin-fixed paraffin-embedded tissue section as described in detail earlier (Alhonen, L., Räsänen, T. L., Sinervirta, R., Parkkinen, J. J., Korhonen, V. P., Pietilä, M., and Jänne, J. (2002) Biochem. J. 362, 149–15).
PCNA was used as an indicator of proliferative activity during liver regeneration. Immunohistochemical detection of PCNA is a convenient and commonly used method to grade proliferative activity in various tissues. PCNA expression is closely correlated with the S-phase of the cell cycle (17). FIG. 5b depicts PCNA labeling index before partial hepatectomy and at 24 h postoperatively in syngenic and transgenic rats without or with methylspermidine treatment. In resting liver, only about 1% of the hepatocytes were PCNA-positive. In syngenic animals, the number of PCNA-positive cells increased sharply to over 30% at 24 h after the operation whereas in transgenic animals the number of positive cells remained at the low preoperative level at this time point (FIG. 5b). […] The experiment was repeated with other groups of syngenic and transgenic rats. In this experiment, PCNA-positive hepatocytes accounted for 0.5±0.1% in resting syngenic liver. The number of positive cells rose to 10.7±3.5% at 24 h postoperatively without the analogue (p<0.001) and to 9.8±1.5% with the analogue (p<0.001). The corresponding figures for the transgenic animals were 0.20±0.0 before the operation, 0.42±0.24% at 24 h postoperatively without methylspermidine and 25.9±4.9% with methylspermidine (p<0.001). It thus appears that the analogue completely reversed the proliferative block in transgenic livers.
Liver regeneration could be restored by a prior administration of α-methylspermidine (Räsänen, T. L., Alhonen, L., Sinervirta, R., Keinänen, T., Herzig, K. H., Suppola, S., Khomutov, A. R., Vepsäläinen, J., and Jänne, J. (2002) J. Biol. Chem. 277, 39867–39872). […]

[2] = tested on: syngenic and transgenic rats; assay: Hepatic SSAT activity and polyamine pools after partial hepatectomy; type: in vivo, rat
From the text: FIGS. 4a–4d. Hepatic polyamine pools in syngenic and transgenic rats after partial hepatectomy and methylspermidine. […] Three to five animals in each group. Me-spd, methylspermidine.
as §1
FIG. 4 depicts polyamine concentrations in syngenic and transgenic rats at 24 h after partial hepatectomy. […] This in all likelihood reflected the enhanced SSAT activity. […] In transgenic animals, the low spermidine pool was further decreased in response to the operation (FIG. 4c).
Liver regeneration could be restored by a prior administration of α-methylspermidine (Räsänen, T. L., Alhonen, L., Sinervirta, R., Keinänen, T., Herzig, K. H., Suppola, S., Khomutov, A. R., Vepsäläinen, J., and Jänne, J. (2002) J. Biol. Chem. 277, 39867–39872). FIG. 10. depicts thymidine incorporation in livers of transgenic rats before and 24 h after partial hepatectomy. […] Table 3 lists the liver pools of polyamines and their analogues before and after partial hepatectomy. […] The analogues were readily accumulated in the livers.

[3] = SSAT transgenic rats, 24 h after partial hepatectomy
[4] = transgenic rats, 24 h regenerating liver, 25 mg/kg 20 and 4 h before operation
[5] = transgenic rats, 24 h regenerating liver, 5 mg/kg 20 and 4 h before operation

CC(N)CCNCCCCNCCC(C)N (stereo not drawn) [bis-α-methylspermine, 1,12-dimethylspermine] was tested, and the “stimulation of DNA synthesis (thymidine incorporation)” value [1, 3] was “about 10 fold”, the “Me2-Spm (liver)” value [2, 4] was 381 ± 124 pmoles/mg tissue wet weight and the “Me-Spd (liver)” value [2, 4] was 154 ± 6 pmoles/mg tissue wet weight. For the same molecule, the “Put (liver)” value [2, 4] was 4400 ± 275^a pmoles/mg tissue wet weight, the “Spd (liver)” value [2, 4] was 266 ± 55^a pmoles/mg tissue wet weight and the “Spm (liver)” value [2, 4] was 6 ± 8^a pmoles/mg tissue wet weight.
For CC(N)CCNCCCCN (stereo not drawn) [α-methylspermidine, 1-methylspermidine], the “thymidine incorporation (DNA synthesis)” value ([1]; SSAT transgenic rats, 24 h after partial hepatectomy, 5 mg/kg 20 h and 4 h before) was “only insignificantly increased DNA synthesis”, the “stimulation of DNA synthesis (thymidine incorporation)” value [1, 3] was “about 10 fold” and the liver weight gain ([1]; non-transgenic rats, 24 h after partial hepatectomy) was “no effect on the weight gain”. The PCNA-positive hepatocytes ([1]; syngenic rats, 24 h postoperatively with the analogue) was 9.8±1.5%, the PCNA-positive hepatocytes ([1]; transgenic rats, 24 h postoperatively with methylspermidine) was 25.9±4.9% and the PCNA labeling index ([1]; syngenic livers, 24 h after partial hepatectomy) was “did not change PCNA labeling index”. The PCNA-positive cells ([1]; transgenic liver, 24 h after partial hepatectomy, from about 1%) was “more than 40%”, the liver weight ([1]; transgenic rats, 24 h after partial hepatectomy) was “significantly increased the organ weight” and the “hepatic spermidine and spermine concentrations” value ([2]; 24 h after partial hepatectomy, 50 mg/kg 3 h before) was “little effect on hepatic spermidine and spermine concentrations”. For the same molecule, the “accumulation of the analogue in liver” value ([2]; normal and transgenic rats, 50 mg/kg 3 h before partial hepatectomy) was “effectively accumulated in normal and transgenic liver”, the hepatic putrescine pool ([2]; transgenic rats, 24 h after partial hepatectomy, 50 mg/kg 3 h before) was “strikingly increased in response to the analogue” and the “Me-Spd (liver)” value [2, 5] was 462 ± 41 pmoles/mg tissue wet weight. For the same molecule, the “Put (liver)” value [2, 5] was 4540 ± 690^a pmoles/mg tissue wet weight, the “Spd (liver)” value [2, 5] was 183 ± 47^a pmoles/mg tissue wet weight and the “Spm (liver)” value [2, 5] was 18 ± 5^a pmoles/mg tissue wet weight. For the same molecule, the “Me-Spd (liver)” value [2, 4] was 864 ± 166 pmoles/mg tissue wet weight, the “Put (liver)” value [2, 4] was 3570 ± 596^a pmoles/mg tissue wet weight and the “Spd (liver)” value [2, 4] was 281 ± 107^a pmoles/mg tissue wet weight. For the same molecule, the “Spm (liver)” value [2, 4] was 40 ± 24^a pmoles/mg tissue wet weight and the “hepatic SSAT activity” value ([2]; transgenic rats, single dose 3 h prior to partial hepatectomy, 24 h postoperatively) was 7520±3000 pmol/mg/10 min.
